Holding throughout (assay type): cell-based
One test has as its system HEK293. Kind of test: (§1) Inhibition of NF-kappaB activity in TNF-alpha-induced human HEK293 cells by luciferase assay. Conditions: dose or concentration not given here.
The target in test [1] is NAD(P)H dehydrogenase [quinone] 1 (Mus musculus) (UniProt Q64669). The test can be described thus: Induction of NADPH-dependent quinone reductase activity in mouse Hepa-1c1c7 cells at 28.4 uM after 48 hrs by MTT assay.
Test [2] has the same target. Kind of test: Induction of NADPH-dependent quinone reductase activity in mouse Hepa-1c1c7 cells assessed as concentration to double activity after 48 hrs by MTT assay. A general note: Tetrazolium assays rely on reduction of a dye to a coloured formazan, in cell work by metabolically active cells.
The nature of test [3]: as §1.
Test [4] deals with NAD(P)H dehydrogenase [quinone] 1 (Mus musculus) (UniProt Q64669). Kind of test: Induction of NADPH-dependent quinone reductase activity in mouse Hepa-1c1c7 cells assessed as induction ratio at 28.4 uM after 48 hrs by MTT assay relative to DMSO control.

Results on 3 molecules are retold here after ChEMBL document CHEMBL1165961, “Fijiolides A and B, inhibitors of TNF-alpha-induced NFkappaB activation, from a marine-derived sediment bacterium of the genus Nocardiopsis” (J Nat Prod, 2010).

SMILES strings stand for the structures. Calls of active or inactive are those of the source. No cut-off for these calls is given here.

Sequence of NAD(P)H dehydrogenase [quinone] 1 (Mus musculus) (Q64669 whole entry): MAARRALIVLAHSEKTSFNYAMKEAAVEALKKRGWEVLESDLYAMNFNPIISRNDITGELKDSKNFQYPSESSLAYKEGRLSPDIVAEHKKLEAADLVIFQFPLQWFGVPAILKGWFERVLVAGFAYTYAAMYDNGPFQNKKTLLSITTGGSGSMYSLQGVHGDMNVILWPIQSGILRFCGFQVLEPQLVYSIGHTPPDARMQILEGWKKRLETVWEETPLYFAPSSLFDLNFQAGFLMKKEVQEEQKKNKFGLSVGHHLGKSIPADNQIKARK

By inhibition is commonly meant the percentage by which the read-out fell short of the control. `CN(C)[C@H]1[C@@H](O)[C@@H](O)[C@H](O[C@]23C=CC=C2c2c4ccc(c2Cl)[C@@H](O)COC(=O)C[C@H](N)c2cc(O)c(c(Cl)c2)O[C@H]43)OC1(C)C` returned an inhibition with HEK293 of 46.5%. Moreover, the result in test [1] was inactive.
In the case of `O=c1cc(-c2ccc(Br)cc2)oc2ccccc12`, the CD in test [2] is 0.013 µM.
In general, IC50 refers to the concentration that gives 50% inhibition. Higher therefore signals lower potency. The molecule `CC(=O)N[C@H]1CC(=O)OC[C@H](O)c2ccc3c(c2Cl)C2=CC=C[C@]2(O[C@@H]2OC(C)(C)[C@@H](N(C)C)[C@@H](O)[C@H]2O)[C@@H]3Oc2c(O)cc1cc2Cl` [FIJIOLIDE A] registered an inhibition in the test on HEK293 of 70.3%. In test [3], this molecule showed a 50% inhibitory concentration (IC50) of 570 nM. The CD in test [2] is 1.8 µM. Besides, the Ratio in test [4] was found to be 3.5.
